Experimental data from the NIST ThermoML archive (doi:10.1021/je100760v).

Assay: osmotic coefficient (dimensionless); mn = molality of the nth substance listed, in mol/kg
Settings: Liquid, isopiestic method

O.O=C([O-])C(=O)[O-].[K+].[K+] [potassium oxalate monohydrate] + O
Settings | osmotic coefficient
298.15 K, m1 = 0.2731 | 0.764
298.15 K, m1 = 0.3247 | 0.747
298.15 K, m1 = 0.3721 | 0.742
298.15 K, m1 = 0.4551 | 0.736
298.15 K, m1 = 0.4898 | 0.737
298.15 K, m1 = 0.5836 | 0.735
298.15 K, m1 = 0.7175 | 0.741
298.15 K, m1 = 0.8532 | 0.747
298.15 K, m1 = 0.879 | 0.746
298.15 K, m1 = 1.163 | 0.76
298.15 K, m1 = 1.224 | 0.76
298.15 K, m1 = 1.403 | 0.77
298.15 K, m1 = 1.446 | 0.771
298.15 K, m1 = 1.553 | 0.775
298.15 K, m1 = 1.631 | 0.777
298.15 K, m1 = 1.763 | 0.782
298.15 K, m1 = 1.86 | 0.789
298.15 K, m1 = 1.865 | 0.787
298.15 K, m1 = 1.961 | 0.791
298.15 K, m1 = 2.166 | 0.801
308.15 K, m1 = 0.197 | 0.768
308.15 K, m1 = 0.2519 | 0.745
308.15 K, m1 = 0.2974 | 0.737
308.15 K, m1 = 0.3637 | 0.734
308.15 K, m1 = 0.4596 | 0.726
308.15 K, m1 = 0.5269 | 0.72
308.15 K, m1 = 0.5465 | 0.719
308.15 K, m1 = 0.5956 | 0.719
308.15 K, m1 = 0.6873 | 0.722
308.15 K, m1 = 0.7481 | 0.721
308.15 K, m1 = 0.8067 | 0.719
308.15 K, m1 = 0.8889 | 0.721
308.15 K, m1 = 0.9189 | 0.724
308.15 K, m1 = 1.088 | 0.73
308.15 K, m1 = 1.269 | 0.739
308.15 K, m1 = 1.541 | 0.751
308.15 K, m1 = 1.754 | 0.768
308.15 K, m1 = 1.933 | 0.777
308.15 K, m1 = 1.991 | 0.782
308.15 K, m1 = 2.108 | 0.792
308.15 K, m1 = 2.305 | 0.804
318.15 K, m1 = 0.2751 | 0.729
318.15 K, m1 = 0.3201 | 0.725
318.15 K, m1 = 0.3228 | 0.721
318.15 K, m1 = 0.4383 | 0.709
318.15 K, m1 = 0.4892 | 0.709
318.15 K, m1 = 0.596 | 0.705
318.15 K, m1 = 0.7938 | 0.704
318.15 K, m1 = 0.8879 | 0.707
318.15 K, m1 = 1.088 | 0.715
318.15 K, m1 = 1.261 | 0.72
318.15 K, m1 = 1.296 | 0.725
318.15 K, m1 = 1.643 | 0.749
318.15 K, m1 = 1.671 | 0.748
318.15 K, m1 = 1.72 | 0.754
318.15 K, m1 = 1.738 | 0.752
318.15 K, m1 = 1.869 | 0.763
318.15 K, m1 = 2.217 | 0.78
